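These data come from cells grown in 96-well plates and exposed to compound for 48 hours at five concentrations. TGI marks complete inhibition of growth.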
Assays:
Experiment in all cases: NCI tumour cell line growth inhibition, 48 h
[1] = tested on: 786-0 renal
[2] = tested on: A498 renal
[3] = tested on: A549 NSCLC
[4] = tested on: ACHN renal
[5] = tested on: BT-549 breast
[6] = tested on: CAKI-1 renal
[7] = tested on: CCRF-CEM leukemia
[8] = tested on: COLO 205 colon
[9] = tested on: DU-145 prostate
[10] = tested on: HCC-2998 colon
[11] = tested on: HCT-116 colon
[12] = tested on: HCT-15 colon
[13] = tested on: HL-60(TB) leukemia
[14] = tested on: HOP-62 NSCLC
[15] = tested on: HOP-92 NSCLC
[16] = tested on: HS 578T breast
[17] = tested on: HT29 colon
[18] = tested on: IGROV1 ovarian
[19] = tested on: K-562 leukemia
[20] = tested on: KM12 colon
[21] = tested on: LOX IMVI melanoma
[22] = tested on: M14 melanoma
[23] = tested on: MALME-3M melanoma
[24] = tested on: MCF7 breast
[25] = tested on: MDA-MB-231 breast
[26] = tested on: MDA-MB-435
[27] = tested on: MDA-N
[28] = tested on: MOLT-4 leukemia
[29] = tested on: NCI-H226 lung
[30] = tested on: NCI-H23 lung
[31] = tested on: NCI-H460 lung
[32] = tested on: NCI-H522 lung
[33] = tested on: NCI/ADR-RES ovarian
[34] = tested on: OVCAR-3 ovarian
[35] = tested on: OVCAR-4 ovarian
[36] = tested on: OVCAR-5 ovarian
[37] = tested on: OVCAR-8 ovarian
[38] = tested on: PC-3 prostate
[39] = tested on: RPMI-8226 leukemia
[40] = tested on: RXF 393 renal
[41] = tested on: SF-268 CNS
[42] = tested on: SF-295 CNS
[43] = tested on: SF-539 CNS
[44] = tested on: SK-MEL-2 melanoma
[45] = tested on: SK-MEL-28 melanoma
[46] = tested on: SK-MEL-5 melanoma
[47] = tested on: SN12C renal
[48] = tested on: SNB-19 CNS
[49] = tested on: SNB-75 CNS
[50] = tested on: SR leukemia
[51] = tested on: SW-620 colon
[52] = tested on: T-47D breast
[53] = tested on: TK-10 renal
[54] = tested on: U251 CNS
[55] = tested on: UACC-257 melanoma
[56] = tested on: UACC-62 melanoma
[57] = tested on: UO-31 renal
[58] = tested on: EKVX NSCLC
[59] = tested on: SK-OV-3 ovarian

For `CC(=O)OC1C[C@@H](C)C2(CC(c3ccoc3)OC2=O)C2CCC(O)C3(CO3)C12CO` (stereo partly drawn), the TGI [1] was greater than 100 µM, the TGI [2] was greater than 100 µM and the TGI [3] was greater than 100 µM. For the same compound, the TGI [4] was greater than 100 µM, the TGI [5] was greater than 100 µM and the TGI [6] was greater than 100 µM. It also gave a TGI [7] greater than 100 µM, a TGI [8] greater than 100 µM and a TGI [9] greater than 100 µM. The TGI [10] was greater than 100 µM, the TGI [11] was greater than 100 µM and the TGI [12] was greater than 100 µM. For the same compound, the TGI [13] was greater than 100 µM, the TGI [14] was greater than 100 µM and the TGI [15] was greater than 100 µM. It also gave a TGI [16] greater than 100 µM, a TGI [17] greater than 100 µM and a TGI [18] greater than 100 µM. The TGI [19] was greater than 100 µM, the TGI [20] was greater than 100 µM and the TGI [21] was greater than 100 µM. The TGI [22] was greater than 100 µM, the TGI [23] was greater than 100 µM and the TGI [24] was greater than 100 µM. For the same compound, the TGI [25] was greater than 100 µM, the TGI [26] was greater than 100 µM and the TGI [27] was greater than 100 µM. The TGI [28] was greater than 100 µM, the TGI [29] was greater than 100 µM and the TGI [30] was greater than 100 µM. The TGI [31] was greater than 100 µM, the TGI [32] was greater than 100 µM and the TGI [33] was greater than 100 µM. It also gave a TGI [34] greater than 100 µM, a TGI [35] greater than 100 µM and a TGI [36] greater than 100 µM. The TGI [37] was greater than 100 µM, the TGI [38] was greater than 100 µM and the TGI [39] was greater than 100 µM. For the same compound, the TGI [40] was greater than 100 µM, the TGI [41] was greater than 100 µM and the TGI [42] was greater than 100 µM. The TGI [43] was greater than 100 µM, the TGI [44] was greater than 100 µM and the TGI [45] was greater than 100 µM. The TGI [46] was greater than 100 µM, the TGI [47] was greater than 100 µM and the TGI [48] was greater than 100 µM. For the same compound, the TGI [49] was greater than 100 µM, the TGI [50] was greater than 100 µM and the TGI [51] was greater than 100 µM. For the same compound, the TGI [52] was greater than 100 µM, the TGI [53] was greater than 100 µM and the TGI [54] was greater than 100 µM. It also gave a TGI [55] greater than 100 µM, a TGI [56] greater than 100 µM and a TGI [57] greater than 100 µM.
For `COC(=O)C(Cc1ccc(OC)cc1O)NC(=O)OC(C)(C)C` (stereo not drawn), the TGI [1] was greater than 100 µM, the TGI [3] was greater than 100 µM and the TGI [4] was greater than 100 µM. It also gave a TGI [5] greater than 100 µM, a TGI [6] greater than 100 µM and a TGI [7] greater than 100 µM. The TGI [8] was greater than 100 µM, the TGI [9] was greater than 100 µM and the TGI [58] was greater than 100 µM. For the same compound, the TGI [10] was greater than 100 µM, the TGI [11] was greater than 100 µM and the TGI [12] was greater than 100 µM. For the same compound, the TGI [13] was greater than 100 µM, the TGI [14] was greater than 100 µM and the TGI [16] was greater than 100 µM. For the same compound, the TGI [17] was greater than 100 µM, the TGI [18] was greater than 100 µM and the TGI [19] was greater than 100 µM. The TGI [20] was greater than 100 µM, the TGI [21] was greater than 100 µM and the TGI [22] was greater than 100 µM. It also gave a TGI [23] greater than 100 µM, a TGI [24] greater than 100 µM and a TGI [25] greater than 100 µM. It also gave a TGI [26] greater than 100 µM, a TGI [27] greater than 100 µM and a TGI [28] greater than 100 µM. For the same compound, the TGI [29] was greater than 100 µM, the TGI [30] was greater than 100 µM and the TGI [31] was greater than 100 µM. It also gave a TGI [32] greater than 100 µM, a TGI [33] greater than 100 µM and a TGI [34] greater than 100 µM. It also gave a TGI [35] greater than 100 µM, a TGI [36] greater than 100 µM and a TGI [37] greater than 100 µM. The TGI [38] was greater than 100 µM, the TGI [40] was greater than 100 µM and the TGI [41] was greater than 100 µM. It also gave a TGI [42] greater than 100 µM, a TGI [43] greater than 100 µM and a TGI [44] greater than 100 µM. For the same compound, the TGI [45] was greater than 100 µM, the TGI [46] was greater than 100 µM and the TGI [59] was greater than 100 µM. It also gave a TGI [47] greater than 100 µM, a TGI [48] greater than 100 µM and a TGI [49] greater than 100 µM. For the same compound, the TGI [50] was greater than 100 µM, the TGI [51] was greater than 100 µM and the TGI [52] was greater than 100 µM. It also gave a TGI [53] greater than 100 µM, a TGI [54] greater than 100 µM and a TGI [55] of 95 µM. The TGI [56] was greater than 100 µM and the TGI [57] was greater than 100 µM.
